Experimental data from patent publication US20120129809A1, “LUNG CANCER TREATMENT” (priority 2009, published 2012).

Columns and labels:
H2122 = test: KRAS mutant NSCLC xenograft H2122; type: in vivo
human tumor cell lines = test: antiproliferative activity in human tumor cell lines; type: cell-based; details: broad range of human tumor cell lines, including NSCLC, fibrosarcoma, glioblastoma, erythroleukemia, prostate, colon, ovarian, endometrial and breast cancers
side effects in patients = type: in vivo; details: onset as early as first week of treatment
[1] = test system: several tumor types, such as sarcomas; test: clinical development in advanced cancers; type: in vivo
[2] = test system: human tumor cell line xenografts; test: murine tumor xenograft models utilizing human tumor cell lines; type: in vivo; details: xenografts representing glioblastoma, prostate, breast, lung, colon and pancreatic cancers
[3] = test system: NSCLC cell lines (KRAS mutant and KRAS wild-type); test: panel of more than 100 NSCLC cell lines; type: cell-based
[4] = test system: PTEN-deficient tumor cell lines; details: PTEN-deficient lines including glioblastoma, prostate, breast, pancreas, lung and colon; cited from earlier work
A549 = test: KRAS mutant NSCLC xenograft A549; type: in vivo

Question: What does the source list for `CO[C@H]1C[C@@H]2CC[C@@H](C)[C@@](O)(O2)C(=O)C(=O)N2CCCCC2C(=O)O[C@H]([C@H](C)C[C@@H]2CC[C@H](OP(C)(C)=O)[C@H](OC)C2)CC(=O)[C@H](C)/C=C(\C)[C@@H](O)[C@H](OC)C(=O)[C@H](C)C[C@@H](C)/C=C/C=C/C=C/1C` (stereo in doubt) [Deforolimus]?
Answer: metabolism by CYP3A (CYP3A): extensively metabolized by CYP3A; anti-tumor activity (H2122): showed anti-tumor activity; antiproliferative activity (human tumor cell lines): demonstrated antiproliferative activity; side effect (side effects in patients): mouth sores typically reported as mucositis; anti-tumor activity [1]: evidence of anti-tumor activity; in vivo activity [2]: demonstrated in vivo activity; activity in KRAS mutant versus KRAS wild-type cells [3]: the same in both KRAS mutant and KRAS wild-type cells; antiproliferative activity [4]: demonstrated antiproliferative activity; anti-tumor activity (A549): showed anti-tumor activity
